Structures can show the parent of a compound that is named as a salt. Where two headings read alike, the source gives them in different places.
What was measured:
[1] = biological target: PDE4 enzyme; test: Inhibition of Phosphodiesterase Enzymes (PDE4), [3H]cAMP hydrolysis assay; format: biochemical; conditions: PDE4 inhibition, 1 μM cAMP, 34° C., 20 minutes
Description: Inhibition of Phosphodiesterase Enzymes (PDE4)
In this assay, PDE4 enzyme converts [^3H] cAMP to the corresponding [^3H] 5′-AMP in proportion to the amount of PDE4 present. The [^3H] 5′-AMP then was quantitatively converted to free [^3H] adenosine and phosphate by the action of snake venom 5′-nucleotidase.
The assay was performed with modification of the method of Thompson and Appleman (Biochemistry; 1971; 10; 311-316) and Schwartz and Passoneau (Proc. Natl. Acad. Sci. U.S.A. 1974; 71; 3844-3848), both references incorporated herein by reference in their entirety, at 34° C. In a 200 ul total reaction mixture, the reaction mixture contained 12.5 mM of Tris, 5 mM MgCl2, 1 μM cAMP (cold) and ^3H cAMP (0.1 uCi), (Amersham). […] Drug samples were then added in the reaction mixture (25 μt/tube). The assay was initiated by addition of enzyme mix (75 μl) and the mixture was incubated for 20 minutes at 34° C. The reaction was stopped by boiling the tubes for 2 mins at 100° C. in a water bath. After cooling on ice for 5 minutes and addition of 50 ug/reaction of 5′-nucleotidase snake venom from Crotalus atrox incubation was carried out again for 20 min. at 34° C. The unreacted substrate was separated from (^3H) Adenosine by addition of Dowex AG 1-X8 (Biorad Lab), (400 ul) which was prequilibrated (1:1:1) in water and ethanol. Reaction mixture was then thoroughly mixed, placed on ice for 15 minutes, vortexed and centrifuged at 14,000 r.p.m. for 2 mins. After centrifugation, a sample of the supernatant was taken and added in 24 well optiplates containing Scintillant (1 ml) and mixed well. The samples in the plates were then determined for radioactivity in a Top Counter and the PDE4 activity was estimated. PDE4 enzyme was present in quantities that yield <30% total hydrolysis of substrate (linear assay conditions).
Results were expressed as percent inhibition (IC50) in nM concentrations. The IC50 values were determined from the concentration curves by nonlinear regression analysis.

[2] = test system: PDE4; test: EC50 of the PDE4 results table (method not given)

Compound	IC50 [1] [nM]	EC50 [2] [nM]	IC50 ([1]; sodium salt) [nM]	EC50 ([2]; sodium salt) [nM]
COc1ccc(C(=O)Nc2c(Cl)cncc2Cl)c2c1oc1ccc(NC(=O)C(=O)O)cc12 [Example 09, N-(3,5-dichloropyrid-4-yl)-4-methoxy-8-hydroxycarbonylcarboxamido-dibenzo[b,d]furan-1-carboxamide]	1.03	138		
CCS(=O)(=O)Nc1ccc2oc3c(OC(F)F)ccc(C(=O)Nc4c(Cl)cncc4Cl)c3c2c1 [Example 32, N-(3,5-dichloropyrid-4-yl)-4-difluoromethoxy-8-ethanesulfonamido-dibenzo[b,d]furan-1-carboxamide]	14.1			
COc1ccc(C(=O)Nc2c(Cl)cncc2Cl)c2c1oc1ccc(NC(=O)C(=O)O)cc12 [Example 10, N-(3,5-dichloropyrid-4-yl)-4-methoxy-8-hydroxycarbonylcarboxamido-dibenzo[b,d]furan-1-carboxamide sodium salt]			1.85	38.2
CNC(=O)Nc1ccc2oc3c(OC)ccc(C(=O)Nc4c(Cl)cncc4Cl)c3c2c1 [Example 29, N-(3,5-dichloropyrid-4-yl)-4-methoxy-8-methylamino carboxamido-dibenzo[b,d]furan-1-carboxamide]	2.14	19.3		
CCOC(=O)C(=O)Nc1ccc2oc3c(OC(F)F)ccc(C(=O)Nc4c(Cl)cncc4Cl)c3c2c1 [Example 37, N-(3,5-dichloropyrid-4-yl)-4-difluoromethoxy-8-ethoxycarbonylcarboxamido-dibenzo[b,d]furan-1-carboxamide]	21.5	> 278		
CN(C)S(=O)(=O)Nc1ccc2oc3c(OC(F)F)ccc(C(=O)Nc4c(Cl)cncc4Cl)c3c2c1 [Example 33, N-(3,5-dichloropyrid-4-yl)-4-difluoromethoxy-8-N,N-dimethylaminosulfonamido-dibenzo[b,d]furan-1-carboxamide]	12.1			
COc1ccc(C(=O)Nc2c(Cl)cncc2Cl)c2c3cc(NC(C)=O)ccc3n(C)c12 [Example 54, N-(3,5-dichloropyrid-4-yl)-1-methoxy-9-methyl-6-acetamido-9H-4-carbazolecarboxamide]	237			
COc1ccc(C(=O)Nc2c(Cl)cncc2Cl)c2c1oc1ccc(NC(=O)NCC(=O)O)cc12 [Example 51, N-(3,5-dichloropyrid-4-yl)-4-methoxy-8-(2-hydroxy-2-oxo-ethylaminocarbonylamino)-dibenzo[b,d]furan-1-carboxamide]	1.98	122		
COc1ccc(C(=O)Nc2c(Cl)cncc2Cl)c2c1oc1ccc(N(C(=O)C3CC3)C(=O)C3CC3)cc12 [Example 13, N-(3,5-dichloropyrid-4-yl)-4-methoxy-8-(N,N-dicyclopropylcarbonylamino)-dibenzo[b,d]furan-1-carboxamide]	74			
O=C(O)C(=O)Nc1ccc2oc3c(OC(F)F)ccc(C(=O)Nc4c(Cl)cncc4Cl)c3c2c1 [Example 38, N-(3,5-dichloropyrid-4-yl)-4-difluoromethoxy-8-hydroxycarbonylcarboxamido-dibenzo[b,d]furan-1-carboxamide]	1.41	26.9		
COc1ccc(C(=O)Nc2c(Cl)cncc2Cl)c2c1oc1ccc(NC(=O)Oc3ccccc3)cc12 [Example 17, N-(3,5-dichloropyrid-4-yl)-4-methoxy-8-phenoxycarboxamido-dibenzo[b,d]furan-1-carboxamide]	9.09	104		
COc1ccc(C(=O)Nc2c(Cl)cncc2Cl)c2c1oc1ccc(NC(=O)OCC(C)C)cc12 [Example 16, N-(3,5-dichloropyrid-4-yl)-4-methoxy-8-isobutyloxycarboxamido-dibenzo[b,d]furan-1-carboxamide]	63.6			
O=C(Nc1c(Cl)cncc1Cl)c1ccc(OC(F)F)c2oc3ccc(NC(=O)C4CC4)cc3c12 [Example 36, N-(3,5-dichloropyrid-4-yl)-4-difluoromethoxy-8-cyclopropylcarboxamido-dibenzo[b,d]furan-1-carboxamide]	4.64	8.44		
CCOC(=O)C(=O)Nc1ccc2oc3c(OC)ccc(C(=O)Nc4c(Cl)cncc4Cl)c3c2c1 [Example 08, N-(3,5-dichloropyrid-4-yl)-4-methoxy-8-ethoxycarbonylcarboxamido-dibenzo[b,d]furan-1-carboxamide]	4.68	110		
COc1ccc(C(=O)Nc2c(Cl)cncc2Cl)c2c1oc1ccc(NC(=O)N3CCOCC3)cc12 [Example 25, N-(3,5-dichloropyrid-4-yl)-4-methoxy-8-(morphol-4-ylcarboxamido)-dibenzo[b,d]furan-1-carboxamide]	5.07	8.9		
COc1ccc(C(=O)Nc2c(Cl)cncc2Cl)c2c1oc1ccc(NC(=O)NC(C)C)cc12 [Example 26, N-(3,5-dichloropyrid-4-yl)-4-methoxy-8-isopropylamino carboxamido-dibenzo[b,d]furan-1-carboxamide]	15.6			

More lines, main results first:

IC50 [1] [nM]	EC50 [2] [nM]	Compound	IC50 ([1]; sodium salt) [nM]	EC50 ([2]; sodium salt) [nM]
0.887	4.34	COc1ccc(C(=O)Nc2c(Cl)cncc2Cl)c2c1oc1ccc(NC(=O)c3ccco3)cc12 [Example 11, N-(3,5-dichloropyrid-4-yl)-4-methoxy-8-(fur-2-yl-carboxamido)-dibenzo[b,d]furan-1-carboxamide]		
1.28	9.34	COc1ccc(C(=O)Nc2c(Cl)cncc2Cl)c2c1oc1ccc(NC(=O)N3CCN(C)CC3)cc12 [Example 22, N-(3,5-dichloropyrid-4-yl)-4-methoxy-8-(N-methylpiperazin-4-ylcarboxamido)-dibenzo[b,d]furan-1-carboxamide]		
0.557	16.2	COc1ccc(C(=O)Nc2c(Cl)cncc2Cl)c2c1oc1ccc(NC(=O)C3CC3)cc12 [Example 12, N-(3,5-dichloropyrid-4-yl)-4-methoxy-8-(cyclopropylcarbonylamino)-dibenzo[b,d]furan-1-carboxamide]		
0.762	7.39	CCS(=O)(=O)Nc1ccc2oc3c(OC)ccc(C(=O)Nc4c(Cl)cncc4Cl)c3c2c1 [Example 03, N-(3,5-dichloropyrid-4-yl)-4-methoxy-8-(ethanesulphonamido)-dibenzo[b,d]furan-1-carboxamide]		
1.03	2.07	COc1ccc(C(=O)Nc2c(Cl)cncc2Cl)c2c1oc1ccc(NS(=O)(=O)N(C)C)cc12 [Example 02, N-(3,5-dichloropyrid-4-yl)-4-methoxy-8-(N,N-dimethylsulphonamido)-dibenzo[b,d]furan-1-carboxamide]		
1.67	11.9	COc1ccc(C(=O)Nc2c(Cl)c[n+]([O-])cc2Cl)c2c1oc1ccc(NS(C)(=O)=O)cc12 [Example 48, N-(3,5-dichloropyrid-4-yl)-4-methoxy-8-methanesulfonamido-dibenzo[b,d]furan-1-carboxamide-N-oxide]		
0.506	8.57	COc1ccc(C(=O)Nc2c(Cl)cncc2Cl)c2c1oc1ccc(NS(C)(=O)=O)cc12 [Example 01, N-(3,5-dichloropyrid-4-yl)-4-methoxy-8-methanesulfonamido-dibenzo[b,d]furan-1-carboxamide]		
1.4	6.33	CCNC(=O)Nc1ccc2oc3c(OC)ccc(C(=O)Nc4c(Cl)cncc4Cl)c3c2c1 [Example 28, N-(3,5-dichloropyrid-4-yl)-4-methoxy-8-ethylamino carboxamido-dibenzo[b,d]furan-1-carboxamide]		
